Test [1] relates to pyruvate oxidation by diaphragm tissue from fat-fed rats. As to the kind of experiment: Stimulation of pyruvate oxidation by diaphragm tissue from fat-fed rats in vitro. The test is classed as cell-based. The conditions noted are these: Rattus norvegicus, concentration of 0.5 mmoles, L-compounds. The method, then:
Representative compounds of the formula (II) have been tested for their ability to increase the oxidation of glucose and/or pyruvate as follows: Diaphragm tissue is obtained from rats fed on a high fat diet similar to `Diet B` described by Zaragoza and Felber [Horm. Metab. Res., 2, 323 (1970)]. Pyruvate oxidation by such tissue is assessed by measurement of the rate of incorporation of carbon-14 from carbon-14-labelled pyruvate into carbon dioxide in vitro, as described by Bringolf [Eur. J. Biochem., 26, 360 (1972)]. The rate of pyruvate oxidation is depressed by 50%-75% compared with that by diaphragm tissue from rats fed on a normal diet. When the L- and DL-compounds of the formula (II) are added to the medium, they are found to stimulate pyruvate oxidation by diaphragm tissue from fat-fed rats in a dose dependent manner.

Test [2] has as its system pyruvate dehydrogenase enzyme. In words: Increase in proportion of active form of pyruvate dehydrogenase (PDHa/PDHt) in hearts of fat-fed rats in vivo. The conditions noted are these: 0.6 mg./kg. oral or sub-cutaneous; rat hearts removed after 11/2 hours; L-compounds; placebo ratio 0.12-0.21. As to the method:
The ability of compounds of formula (II) to increase the proportion of the active form of the pyruvate dehydrogenase enzyme has been measured in the following test: Rats fed on a high fat diet as in the previous test, are treated either with placebo or with the compound of formula (II) by subcutaneous or intravenous injection or by oral administration. After 11/2 hours the rat hearts are removed and homogenized under conditions which minimize changes in the proportion of the pyruvate dehydrogenase enzyme […] which is present in the active form, as described by Whitehouse and Randle [Biochem. J., 134, 651 (1973)]. The total amount of the enzyme present (PDHt) and the amount which is present in the active form (PDHa) are assessed by a method similar to that described by Taylor et al. [J. Biol. Chem., 248, 73 (1973)]. The fat-feeding process is found to depress the ratio […] from a normal value of about 0.7 to a value in the range from 0.05 to 0.2. Treatment of fat-fed rats with L- and DL-compounds of formula (II) either parenterally or orally, increases this ratio in a dose-dependent manner. The increase in the […] ratio affected by the L-compounds of formula (II) at a dosage level of 0.6 mg./kg. via the oral or sub-cutaneous route is shown in the following Table: […]

Structures can show the parent of a compound that is named as a salt. Square brackets hold non-standard residues; d marks the D form. Peptide text beside a SMILES is read from it. Hpg = N[C@H](C(=O)O)c1ccc(O)cc1

With `Cl.N[C@H](C(=O)NCc1ccc(O)cc1)c1ccc(O)cc1` [Example 1, (L)-N-(4-Hydroxybenzyl)-2-amino-2-(4-Hydroxyphenyl)acetamide hydrochloride], the activation at 500 µM in test [1] is 72%. Further, the “PDHa/PDHt ratio, compound” value in test [2] amounted to 1.00.

In the case of `CC(C)NC(=O)[C@@H](N)c1ccc(O)cc1` [Example 2, L-N-isopropyl-2-amino-2-(4-hydroxyphenyl)acetamide], in test [1], the activation at 500 µM is 108%. Further, in test [2], the “PDHa/PDHt ratio, compound” value is reported as 0.65.

For `CC(C)(C)NC(=O)[C@@H](N)c1ccc(O)cc1` [Example 3], in test [1], the activation at 500 µM was found to be 15%. Also, the “PDHa/PDHt ratio, compound” value in test [2] was found to be 0.56.

Consider `C#CCNC(=O)[C@@H](N)c1ccc(O)cc1` [Example 4, L-N-propargyl-2-amino-2-(4-hydroxyphenyl)acetamide], for which the activation at 500 µM in test [1] stood at 82%. Further, the “PDHa/PDHt ratio, compound” value in test [2] is listed as 0.73.

In turn, `N[C@H](C(=O)NC1CCCC1)c1ccc(O)cc1` [Example 5, L-N-cyclopentyl-2-amino-2-(4-hydroxyphenyl)acetamide] gave an activation at 500 µM in test [1] of 23%. For the same compound, the “PDHa/PDHt ratio, compound” value in test [2] was found to be 0.88.

With `CCN(CC)CCNC(=O)[C@@H](N)c1ccc(O)cc1` [Example 6, L-N-(2-diethylamino)ethyl-2-amino-2-(4-hydroxyphenyl)acetamide], in test [1], the activation at 500 µM stood at 38%. Moreover, the “PDHa/PDHt ratio, compound” value in test [2] was 0.78.

In turn, `CNC(=O)[C@@H](N)c1ccc(O)cc1.Cl` [Example 13, (L)-N-methyl-2-Amino-2-(4-hydroxyphenyl)acetamide hydrochloride] came in with an activation at 500 µM in test [1] of 45%. Moreover, in test [2], the “PDHa/PDHt ratio, compound” value worked out at 0.55.

In the case of `COCCNC(=O)[C@@H](N)c1ccc(O)cc1` [Example 14, L-N-(2-methoxyethyl)-2-amino-2-(4-hydroxyphenyl)acetamide], the activation at 500 µM in test [1] is 76%. In addition, in test [2], the “PDHa/PDHt ratio, compound” value was found to be 0.88.

For `COc1ccccc1OCC(O)CNC(=O)[C@@H](N)c1ccc(O)cc1` (stereo partly shown) [Example 15], the activation at 500 µM in test [1] amounted to 55%. Besides, in test [2], the “PDHa/PDHt ratio, compound” value is listed as 0.25.

`Cl.N[C@H](C(=O)N[C@@H](Cc1ccc(O)cc1)C(=O)O)c1ccc(O)cc1` [Example 16, N-[(L)-2-(4-Hydroxyphenyl)glycyl]-(L)-tyrosine hydrochloride] (H-[Hpg]-Tyr-OH) registered an activation at 500 µM in test [1] of 67%. Besides, the “PDHa/PDHt ratio, compound” value in test [2] came out at 0.31.

As to `N[C@H](C(=O)NCC(=O)O)c1ccc(O)cc1` [Example 17, N-[(L)-2-(4-hydroxyphenyl)glycyl]-glycine hydrochloride dioxanate] (H-[Hpg]-Gly-OH), the activation at 500 µM in test [1] stood at 41%. Further, the “PDHa/PDHt ratio, compound” value in test [2] turned out to be 0.31.

(Values after patent US4218474A, “Derivatives of L- and DL-4-hydroxyphenylglycine” (Pfizer Inc., priority 1977, dated 1980).)
